Among the data in a melting point compilation (Tetko et al.; mined from patent text by program, amines drawn as free bases though some values may be those of a salt) are melting point values, retold here.

For orientation: melting point means the temperature, or range, at which the solid turns liquid.

Take `CCOC(=O)CCCn1cc(-c2cccnc2)c2cc([N+](=O)[O-])ccc21`: the melting point lay in the range of 76 to 78 °C. As for `COC(=O)CCc1cc2cc(Cl)ccc2n1S(=O)(=O)c1ccc(C#N)cc1`, the figure is 155 to 159 °C; as for `CNC(=O)C(C)Oc1ccc(Oc2ccc(Cl)cc2)cc1` (configuration not stated), 117 to 118 °C. As for `Oc1cc(Br)ccc1/C=N/c1ccccc1`, the figure is 129 °C; as for `COc1cc2ncnc(N3CCN(C(=O)Nc4ccc(-n5cccc5)nc4)CC3)c2cc1OC`, 252 to 254 °C; as for `CCc1ccc(C)cc1-n1cncc1C(=O)OC`, 56 to 57 °C. With `CCC1(CC)C(=O)Nc2ccccc21` the figure was 156 to 159 °C. `O=C1c2nccc(Cl)c2-c2nc3ccccc3c3ccnc1c23`: the melting point was > 260 °C.

`Cc1nnc(-c2ccc3occ(-c4ccc(F)cc4)c3c2)o1` displayed a melting point of 130 to 131 °C. As for `CCOC(=O)c1cc(=O)c2cccc(COc3ccc(OCc4ccc5ccccc5n4)cc3)c2o1`, the figure is 124 to 127 °C; as for `O=C1C(c2ccccc2)=C(c2ccccc2Cl)C(=O)N1c1ccc(Cl)cc1`, 46 °C; as for `NC(=NCC(F)(F)F)Nc1ccnc(COCCO)n1`, 144 to 146 °C. With `N#CC(N)=C(C#N)N=Cc1cnn(-c2c(Cl)cc(C(F)(F)F)cc2Cl)n1` the figure was 234 to 235 °C; with `CCC1=C(C(=O)OC)C(c2ccc(F)cc2Cl)N=C(c2cscn2)N1` (configuration not stated), 144 to 147 °C. With `C=Cc1cc(O)cc2cc(-c3ccc(O)cc3)oc12` the figure was 182 to 184 °C. For the compound `Cc1cc2c(=O)c(N3CCC(O)(c4ccc(F)cc4)CC3)coc2cc1OCc1ccccc1`, the melting point was in the range of 245 to 246 °C. On to `CCOC(=O)CNc1cc(C(F)(F)F)ccc1C#N`, for which the melting point was in the range of 98 to 101 °C. As for `O=C(O)CC1CCCc2cc(S(=O)(=O)c3ccccc3)ccc21` (configuration not stated), the figure is 144 °C. As for `COc1ccc(C(=NOC(C)=O)c2cccc(F)c2F)c(O)c1Cl`, the figure is 136 to 139 °C; as for `O=c1[nH]c2ccc(C=CCN3CCC(Cc4ccc(F)cc4)CC3)cc2o1`, 202 to 204 °C. As for `CC(=NO)NC/C(F)=C\CC[C@H](N)C(=O)O`, the figure is 198 to 200 °C; as for `COc1ccc(C2=CC(O)CC2)cc1OC1CCCC1` (configuration not stated), 105 to 107 °C.

Turning to `C[C@@H]1CNCc2cc3cccc(OC(F)(F)F)c3n21`, the melting point fell in the range of 58 to 60 °C. With `CCOC(=O)CCCn1c(Nc2cnc(N(C)C)cc2C)nc2c(Cl)ccc(C(CC)CC)c21` the figure was 158 to 159 °C; with `Cc1ccc(S(=O)(=O)c2ccc3c(c2)[C@@H](N2CCCC2=O)[C@H](O)C(C)(C)O3)cc1` (relative stereo), 242 to 243 °C. The compound `CCCc1ccc(CCCCCCCC(=O)O)cc1` yielded a melting point of 42 to 43 °C. As for `Cn1c(-c2ccc(-n3ccnc3)cc2)cnc1[C@H](Cc1ccccn1)N(C=O)c1cc2ccc(Cl)cc2o1`, the figure is 165 to 169 °C; as for `O=C(O)CCC1CCN(CC(=O)OC2CCCCC2)CC1`, 85 to 88 °C. As for `CC(=O)[C@H]1CC=C(C)C(=O)C1`, the figure is 35 °C; as for `CS(=O)(=O)c1ccc(-c2nn(Cc3ccc(Cl)cc3Cl)c(=O)cc2-c2ccc(F)cc2)cc1`, 212 °C; as for `CCOCC(COCC)Oc1ccc(/C=C/CO)c(Oc2ncc(C(F)(F)F)cc2Cl)c1`, 52.5 to 54.5 °C.

Regarding `CS(=O)(=O)c1ccc(-c2cc(-c3nc4ccccc4c(=O)n3-c3ccccc3Cl)sc2N2CCOCC2)cc1`, the melting point was > 275 °C.

With `CC1(C)CS(=O)(=O)CC(C)(C)N1Cl`, the melting point came to 163 °C. With `CCNC(=S)N(CC)c1ccc(Cl)nc1` the figure was 84 to 86 °C; with `CN(CCCO)C(=O)c1cc2ccccc2c(-c2ccccc2I)n1`, 51 to 52 °C; with `CS(=O)c1ccc(Nc2ccn(-c3ccccc3)n2)cc1` (configuration not stated), 123 to 124 °C. With `CN(C)CC(=O)N(C)c1cccc(-c2ccnc3c(C(=O)c4ccccc4)cnn23)c1` the figure was 166 to 168 °C. `CCOC(=O)Nc1nc(C)c(-c2nc3ccccc3c(=O)n2-c2ccccc2)s1` yielded a melting point of 248 to 251 °C.

`CCOC(=O)c1c2ccc(CC(=O)N(OC)C3COC(C)(C)O3)ccc-2c(C(=O)OCC)c1N` (configuration not stated) gave a melting point of 135 to 137 °C. As for `CC(=NC(C)c1ccc(Cl)cc1Cl)c1ccc(Cl)cc1Cl` (configuration not stated), the figure is 77 to 85 °C; as for `CCCCCCCCC(SCCCCCC)C(=O)Nc1c(Cl)cc(NC(C)=O)c2ncc(C)cc12` (configuration not stated), 140 to 141 °C; as for `Cc1nn(-c2cc(OS(C)(=O)=O)c(Cl)cc2F)c(C)c1[N+](=O)[O-]`, 150 to 152 °C. As for `CCCn1c(=O)c2[nH]c(-c3cc(C)n(CC(=O)Nc4ccccc4)n3)nc2n(CCC)c1=O`, the figure is 255 to 257 °C; as for `CCOC(=O)C(C)(C)Oc1ccc(-c2ccc(CCNC(C)=O)cc2)cc1`, < 20 °C; as for `CCOC(=O)c1c(C)nc(N(C)N)c([N+](=O)[O-])c1Cl`, 159 to 161 °C. As for `CN(C)CC(=O)Nc1cccc(NC(=O)Nc2ccc(N(CCCl)CCCl)cc2)c1`, the figure is 62 to 64 °C; as for `CC(=O)NS(=O)(=O)c1cc(C(=O)O)cc([N+](=O)[O-])c1Oc1ccccc1`, 270 to 271 °C; as for `O=C(c1ccncc1)N1CCN(Cc2ccc3c(c2)Cc2c(-c4ccsc4)n[nH]c2-3)CC1`, 218 to 220 °C. `CC1Cc2ccc(Cl)cc2C(c2ccc([N+](=O)[O-])cc2)=NN1C(=O)C(F)(F)F` (configuration not stated) came in with a melting point of 150 to 152 °C.

Regarding `CCOC(=O)c1cn(C2COC2)c2c(F)c(F)c(F)cc2c1=O`, the melting point was in the range of 146 to 147 °C.

`CCN(CC)C(=O)Oc1cc(CN/C=C2\C(=O)NC(=O)c3ccc(I)cc32)ccc1OC`: the melting point is 128 to 130 °C.

The compound `CC(Cl)=CC(C#N)NC(=O)c1cn(C)nc1C` (configuration not stated) came in with a melting point of 113 to 114 °C. The compound `CCc1sc(-c2cc[nH]n2)c2c1C(=O)CC(C)(C)C2` gave a melting point of 152 to 155 °C. As for `Cc1ccc(N2CCN(c3cccc(Cl)c3)C2C(Cl)(Cl)Cl)cc1` (configuration not stated), the figure is 34 to 36 °C; as for `O=c1c2c(N3CCNCC3)cc(Cl)cc2n(Cc2ccccc2)c(=O)n1CCCc1ccccc1`, 62 to 68 °C. Consider `COc1ccc2[nH]c(C(=O)N[C@H]3CCN(C(=O)c4cc(Cl)cc(Cl)c4)[C@H](Cc4ccccc4)C3)cc2c1` (relative stereo), for which the melting point worked out at 251 °C.

The compound `O=C(O)c1c(Cl)c(Cl)cc([N+](=O)[O-])c1Cl` showed a melting point of 149 to 151 °C. With `CCOc1cc(CCNC(=S)Nc2nccs2)ccc1OC` the figure was 150 to 152 °C; with `CC(=O)NC1(c2ccc(C(C)=O)cc2)CC1`, 128 to 131 °C. Turning to `O[C@H]1c2cc(Oc3ccccn3)ccc2OC[C@H]1Cc1cccnc1` (relative stereo), the melting point lay in the range of 67 to 68 °C. With `CCn1cc(C2(c3ccc(F)c(-c4cccnc4F)c3)N=C(N)N(C)C2=O)cc1C(=O)OC` (configuration not stated) the figure was 114 to 117 °C; with `CN(Cc1ccc(F)cc1)C1CCN(c2ccc(C#N)cc2)CC1`, 100 to 101 °C. With `CCOC(=O)c1sc(CC)nc1C(F)(F)F` the figure was 30 to 32 °C.

`CN(C)C(=O)NCC(C)(C)c1ccc2nc(-c3ccncc3)[nH]c2c1` showed a melting point of 136 to 138 °C. As for `CCOC(=O)c1cn(NC=O)c2c(OCc3ccccc3)c(F)c(F)cc2c1=O`, the figure is 188 to 190 °C; as for `CCn1ncc(C(=O)c2ccc(S(C)(=O)=O)c(-c3ccccc3C)c2C)c1O`, 179 to 180 °C; as for `Cc1nc2cccc(C3CC3CN3C(=O)c4ccccc4C3=O)c2s1` (configuration not stated), 151 to 153 °C. `O=C(NCCN1CCCC1)N1CCN(c2ccc(F)cc2)CC1` displayed a melting point of 100 to 102 °C. With `CCOCc1nc2c(N)nc3c(c2n1CC1(O)CCCC1)CCCC3` the figure was 171 to 173 °C; with `CCC(NC(=O)CC(F)(F)F)c1ccc(Cl)c2nc3n(c12)CCCN3c1ccc(Cl)cc1Cl` (configuration not stated), 285 to 290 °C; with `CCc1cc(Oc2ccc([C@@H]3OC(=O)N[C@@H]3Cc3cccc(OC(F)(F)C(F)F)c3)cc2)ccc1Cl` (racemic), 100 to 101 °C. With `O=C(O)C1=Cc2cc(OCc3ccccc3)ccc2OC1` the figure was 184 to 189 °C. With `CCCCCCCCCCCCCCCCOCC(COP(=O)(O)O)OCCCCCCCCCCCCCCCC` (configuration not stated) the figure was 157 to 159 °C. For the compound `O=c1[nH]c2cc(Br)ccc2c(=O)n1Cc1ccc(Br)cc1F`, the melting point is > 280 °C.

Consider `O=C(CC1CCCCC1)Nc1c(Cl)ccc2nc(N3CCC(c4nnn[nH]4)CC3)ccc12`, for which the melting point lay in the range of 295 to 300 °C. As for `COc1cc(O)c2c(=O)c(OC)c(-c3ccc(OC(C)=O)c(OC)c3)oc2c1`, the figure is 168 to 169 °C; as for `COc1ccc(-c2ccc3c(c2)CCC3=O)c2c1OCCO2`, 168 °C. With `CCOC(=O)c1cn(-c2nc(N)c(F)cc2C)c2c(Cl)c(F)c(F)cc2c1=O` the figure was 198 to 202 °C; with `Cc1c2ccncc2c(C)c2c1[nH]c1ccc(O)cc12`, 307 to 309 °C; with `CCCCc1ccc(C(=O)NCc2c[nH]c(=S)n2[C@H]2CCc3c(F)cc(F)cc3C2)nc1`, 99 to 104 °C. `O=C(C=Cc1ccc(F)cc1)C1CCCCC1`: the melting point was in the range of 44 to 46 °C. For the compound `CCCc1ccc(-n2nc(Cl)cc2-c2ccc(S(C)(=O)=O)cc2)cc1`, the melting point is 143 to 144 °C. As for `CCc1nc2ccc(F)cc2c(OC(=O)C2CC2)c1C`, the figure is 86 to 87 °C; as for `CC(c1oc2ccccc2c(=O)c1-c1ccc(F)cc1)n1cnc2c(N)ncnc21` (configuration not stated), 210 to 212 °C; as for `OCc1nccc(N2CCCCC2)c1Br`, 51 to 53 °C. Turning to `CCCCC[C@@H](CC(=O)NO)C(=O)N[C@H](CC(C)C)C(=O)N[C@@H](C)C(N)=O`, the melting point was in the range of 134 to 136 °C. The compound `CC(=O)Nc1cnc(-c2ccccc2)c(-c2ccc(=O)n(C(C)C)n2)c1` displayed a melting point of 207 to 208 °C.
